Tested on: neointimal formation
Experiment: not given
Settings: S. Douglas et al. Circ Res, 75, 1994; cited from earlier work

| SMILES | reduction in neointimal formation relative to control animals [%] |
| --- | --- |
| CCCOc1ccc2c(c1)[C@@H](c1ccc(OC)cc1OCC(=O)O)[C@H](C(=O)O)[C@H]2c1ccc2c(c1)OCO2 [SB-209670] | 50 |

Biological target: T1, cloned human ETA receptor (Homo sapiens, UniProt P25101)
T1 sequence (P25101 21-427): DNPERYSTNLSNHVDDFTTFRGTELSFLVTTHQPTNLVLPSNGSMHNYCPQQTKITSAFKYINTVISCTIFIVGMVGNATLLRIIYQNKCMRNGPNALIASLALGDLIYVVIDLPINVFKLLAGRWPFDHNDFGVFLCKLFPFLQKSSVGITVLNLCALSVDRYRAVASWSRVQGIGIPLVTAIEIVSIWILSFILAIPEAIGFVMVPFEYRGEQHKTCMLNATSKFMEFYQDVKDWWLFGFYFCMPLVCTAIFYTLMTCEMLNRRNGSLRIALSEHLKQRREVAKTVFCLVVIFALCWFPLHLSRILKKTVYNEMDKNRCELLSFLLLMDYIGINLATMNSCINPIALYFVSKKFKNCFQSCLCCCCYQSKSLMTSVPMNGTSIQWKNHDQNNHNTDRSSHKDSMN
Experiment: Test A binding assay: competition with 125I-ET-1, binding to ETA receptors
Settings: [125I]Tyr13 ET-1 displacement, 37° C., 2 hours
Experimental: Competition between test compounds and ^125I-ET-1 binding to human endothelin receptors is determined as follows.
25 ul of a 30 pM solution of [^125I]Tyr^13 ET-1 (specific activity 2,200 Ci/mM) is mixed with 25 μl samples of test compound (final concentrations in the range 0.1 nM-50.000 nM). 200 μl of a solution containing cloned human ETA receptor (0.75 pmoles receptor protein/ml). 50 mM Tris, 0.5 mM CaCl2, 0.1% human serum albumen. 0.1% bacitracin. 0.05% Tween 20, pH 7.4 is added. The solution is mixed at 37° C. for 2 hours. After the incubation, the unbound ligand is separated from receptor bound ligand by filtration with a Brandel cell harvester, followed by three washes of buffer. Filter papers are counted for radioactivity, and the IC50 (the concentration of test compound at which 50% of the radio-labelled compound is unbound) determined for the concentration range tested.

| SMILES | IC50 [µM] |
| --- | --- |
| COc1cc(C)ccc1S(=O)(=O)NC(=O)C(c1ccc2c(c1)OCO2)c1cn(C)c2cc(C(C)=O)ccc12 (centres unmarked) [Example 101, 6-Acetyl-3-{1-(1,3-benzodioxol-5-yl)-2-[(2-methoxy-4-methylphenyl)sulfonamido]-2-oxoethyl}-1-methyl-1H-indole] | < 0.5 |
| COc1cc(C)ccc1S(=O)(=O)NC(=O)C(c1ccc2c(c1)OCO2)c1cn(C)c2cc(CO)ccc12 (centres unmarked) [Example 65, 3-{1-(1,3-Benzodioxol-5-yl)-2-[(2-methoxy-4-methylphenyl)sulfonamido]-2-oxoethyl}-6-(hydroxymethyl)-1-methyl-1H-indole] | < 0.5 |
| COc1cc(C)ccc1S(=O)(=O)NC(=O)C(c1ccc2c(c1)OCO2)c1cn(C)c2cc(C(=O)O)ccc12 (centres unmarked) [Example 17, 3-{1-(1,3-benzodioxol-5-yl)-2-[(2-methoxy-4-methylphenyl)sulfonamido]-2-oxoethyl}-1-methyl-1H-6-indolecarboxylic acid] | < 0.5 |
| COc1cc(C)ccc1S(=O)(=O)NC(=O)C(c1ccc2c(c1)OCO2)c1cn(C)c2cc(F)ccc12 (centres unmarked) [Example 83] | < 0.5 |
| COCCn1cc(C(C(=O)NS(=O)(=O)c2ccc(C)cc2OC)c2ccc3c(c2)OCO3)c2ccc(C(N)=O)cc21 (centres unmarked) [Example 109, 3-{1-(1,3-benzodioxol-5-yl)-2-[(4-methyl-2-methoxyphenyl)sulfonamido]-2-oxoethyl}-1-(2-methoxyethyl)-1H-6-indolecarboxamide] | < 0.5 |

Tested on: not given
Experiment: not given
Settings: not given

| SMILES | melting point |
| --- | --- |
| Cn1cc(C(C(=O)O)c2ccc3c(c2)OCO3)c2cc(Br)ccc21 (centres unmarked) [Example 68, 2-(1,3-Benzodioxol-5-yl)-2-(5-bromo-1-methyl-1H-3-indolyl)acetic acid] | 191 to 193 °C |
| COc1cc(C)ccc1S(=O)(=O)NC(=O)C(c1cc(OC)c2c(c1)OCO2)c1cn(C)c2cc(Br)ccc12 (centres unmarked) [Example 92, 6-Bromo-3-{1-(7-methoxy-1,3-benzodioxol-5-yl)-2-[(2-methoxy-4-methylphenyl)sulfonamido]-2-oxoethyl}-1-methyl-1H-indole] | 235 °C (dec.) |
| Cc1ccc(S(=O)(=O)NC(=O)C(c2cc3c(cc2Cl)OCO3)c2cn(C)c3cc(CO)ccc23)cc1 (centres unmarked) [Example 99, 3-{1-(6-Chloro-1,3-benzodioxol-5-yl)-2-[(4-methylphenyl)sulfonamido]-2-oxoethyl}-6-(hydroxymethyl)-1-methyl-1H-indole] | 207 to 209 °C |

Next, values leading:

| melting point | SMILES |
| --- | --- |
| 145 to 150 °C (dec.) | COc1cc(C)ccc1S(=O)(=O)NC(=O)C(c1ccc2c(c1)OCO2)c1cn(C)c2cc(Br)ccc12 (centres unmarked) [Example 85, 3-{1-(1,3-benzodioxol-5-yl)-2-[(2-methoxy-4-methylphenyl)sulfonamido]-2-oxoethyl}-6-bromo-1-methyl-1H-indole] |
| 145 to 150 °C | COc1cc(C)ccc1S(=O)(=O)NC(=O)C(c1ccc2c(c1)OCO2)c1cn(C)c2ccc(Br)cc12 (centres unmarked) [Example 79, 3-{1-(1,3-Benzodioxol-5-yl)-2-[(2-methoxy-4-methylphenyl)sulfonamido]-2-oxoethyl}-5-bromo-1-methyl-1H-indole] |
